Results published in US20220249596A1, “PIC1 PEPTIDE COMPOSITIONS AND METHODS OF USE THEREOF FOR TREATMENT OF HYPOXIC ISCHEMIC ENCEPHALOPATHY” (REALTA HOLDINGS, LLC, priority 2019, published 2022).
No end group written: not given here.

Legend:
Format in all cases: in vivo, rat
[1] = tested on: apoptosis in cortex and hippocampus; test: TUNEL/DAPI/C1q staining of brain sections 48 hours after injury
Protocol: To assess the effect of PIC1 on cell death at 48 hours after the initial injury, TUNEL staining, alone or in combination with C1q staining, was utilized to measure DNA strand breaks that are generated during apoptosis.
(§1) TUNEL/C1q staining was performed as follows. Five (5) μm paraffin-embedded coronal brain sections on slides were incubated (1 hour; 60° C.), deparaffinized with xylene, and rehydrated with ethanol (100%, 95%, 70%; RT). Endogenous peroxidase activity was blocked (0.3% H2O2/MeOH; 10 minutes; RT), and heat induced antigen retrieval was performed (when indicated) using 10 mM sodium citrate, pH 6.0. 10% normal serum (from the same species as the host of the secondary antibody) was used to block and to dilute antibodies. Samples were washed twice for 10 min each, in PBST between each step.
For C1q/TUNEL co-staining, tissue was incubated with the TUNEL solution according to manufacturer's instructions (In Situ Cell Death Detection Kit, Roche Molecular Diagnostics, Pleasanton, Calif.), followed by blocking with NGS for one hour at room temperature. C1q was probed using 1:300 mouse anti-C1q (Abcam) in NGS for 30 min at 37° C., followed by incubation in 1:500 goat anti-mouse (Abcam) AF 568 for 30 min at 37° C. All samples were mounted with aqueous mounting media comprising 4′,6-diamidino-2-phenylindole (Vectashield antifade mounting medium with DAPI, Vector Laboratories, Burlingame, Calif.) and coverslipped.
Fluorescent images of the cortex were taken at 20× magnification using a digital camera (DP70, Olympus Center, Valley Forge, Pa.), mounted on a BX50 Olympus microscope. Adobe Photoshop CS5 was used to merge immunofluorescence images, and Image J (National Institutes of Health) was used for analysis.

C5aR = test: Whole brain C5aR expression, Western blotting and immunofluorescence; details: NT versus PIC1-treated groups
Protocol: After blocking for one hour at room temperature, tissues were incubated with 1:300 goat anti-Iba1 (Abcam), 1:250 goat anti-GFAP (Abcam), 1:500 chicken anti-NeuN (Millipore, Billerica, Mass.), or 1:100 mouse anti-NeuN (Millipore) in host appropriate blocking serum overnight at 4° C. Primary antibodies were probed with 1:500 donkey anti-goat (Abcam), goat anti-chicken (Abcam), or goat anti-mouse (Abcam) AF 488 or 568 in appropriate blocking serum for one hour at room temperature. Tissues were blocked a second time with NGS for one hour at room temperature. Samples were then probed with 1:300 mouse anti-C1q (Abcam), 1:300 rabbit anti-C9, 1:50 rabbit anti-MPO (Abcam), 1:200 rabbit anti-TMEM (Novus Bio, Centennial, Colo.), 1:100 rabbit anti-C3aR (Bioss), 1:100 Mouse anti-C5aR (Hycult), or 1:200 chicken anti-C3/C3a (Abcam) in NGS overnight at 4° C. and then with 1:500 goat anti-mouse, rabbit, or chicken (Abcam) AF 488 or 568 in NGS for one hour at room temperature.
Without wishing to be bound by theory, C3a is generated at the convergence of all known complement activation pathways (i.e., the classical, alternate and lectin pathways). To investigate further, C3aR levels in the brain were measured by Western blotting and immunofluorescence (FIG. 5). Western blotting was performed as follows. […]

C3 = test: Immunofluorescence quantification of C3 in brain; details: ipsilateral cortex and hippocampus, 48 hours, versus NT, P<0.05
Protocol: as §1
After blocking for one hour at room temperature, tissues were incubated with 1:300 goat anti-Iba1 (Abcam), 1:250 goat anti-GFAP (Abcam), 1:500 chicken anti-NeuN (Millipore, Billerica, Mass.), or 1:100 mouse anti-NeuN (Millipore) in host appropriate blocking serum overnight at 4° C. Primary antibodies were probed with 1:500 donkey anti-goat (Abcam), goat anti-chicken (Abcam), or goat anti-mouse (Abcam) AF 488 or 568 in appropriate blocking serum for one hour at room temperature. Tissues were blocked a second time with NGS for one hour at room temperature. […]

Substance: IALILEPICCQERAA-dPEG24 (cysteine pairing not given here) [PIC1]
- TUNEL positive cells (DNA fragmentation), cortex and hippocampus ([1]; 48 hours, versus NT (P=0.02) and HT (P=0.04)): significantly fewer
- cell count ([1]; PIC1- versus HT-treated animals): no significant difference
- nucleus size ([1]; versus NT (P=0.02) and HT (P=0.04)): significantly improved
- nuclear density by DAPI staining ([1]; versus NT animals, P=0.01): markedly improved
- C1q/TUNEL co-localization ([1]; versus NT animals, ipsilateral cortex): qualitative reduction
- cell counts (stained nuclei) ([1]; versus NT, P=0.03): significantly improved
- expression of C5aR (C5aR): no significant differences
- C3 expression (C3): decreased expression
